Data as given in patent EP4737451A1 (Dong Wha Pharm. Co., Ltd., priority 2023, dated 2025).

Tests used:
IRAK4 enzyme = target: T1, IRAK4 enzyme (Homo sapiens, UniProt Q9NWZ3); assay: IRAK4 enzyme activity inhibition (ADP-Glo, Promega kit); assay type: biochemical; conditions: for inhibition at 0.1 µM: test compound 0.1 uM; for inhibition at 1 µM: test compound 1 uM
T1 construct: purchased Promega V2621
T1 sequence (Q9NWZ3 1-460): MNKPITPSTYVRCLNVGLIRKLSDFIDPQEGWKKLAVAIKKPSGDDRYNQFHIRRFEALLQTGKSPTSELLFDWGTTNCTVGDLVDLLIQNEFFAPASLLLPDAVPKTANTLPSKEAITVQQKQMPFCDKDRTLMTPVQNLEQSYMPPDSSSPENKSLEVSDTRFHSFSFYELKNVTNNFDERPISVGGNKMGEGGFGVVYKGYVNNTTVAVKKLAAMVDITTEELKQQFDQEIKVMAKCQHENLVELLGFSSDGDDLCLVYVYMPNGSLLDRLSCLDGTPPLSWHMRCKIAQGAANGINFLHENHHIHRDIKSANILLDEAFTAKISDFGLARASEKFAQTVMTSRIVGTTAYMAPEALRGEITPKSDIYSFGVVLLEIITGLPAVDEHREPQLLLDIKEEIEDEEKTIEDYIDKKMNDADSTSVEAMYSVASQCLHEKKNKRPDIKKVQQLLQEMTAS
Experimental: An experiment on IRAK4 enzyme activity inhibition of the compound of the present invention was conducted.
An IRAK4 enzyme kit (purchased from Promega, product number: V2621) was used to dilute a mixed solution between 0.1 µg/µL of myelin basic protein (MBP), which is an enzyme-reactive substrate, and 1.25 mM of ATP with a reaction buffer (40 mM Tris-HCl, pH 7.5; 20 mM MgCl2; 0.1 mg/mL BSA; 50 µM DTT) according to the instructions, so as to dispense 2 µL in a 384-well white plate, and then to add 1 µL of a test compound, which was gradient diluted starting from 1 mM, to a 384-well plate. After that, an IRAK4 enzyme was diluted with a reaction buffer to a final concentration of 5 ng/µL, then 2 µL/well was dispensed into a 384-well white plate and reacted at 37°C for 60 minutes. After completion of a reaction, an ADP-GloTM enzyme test kit (purchased from Promega, product number: V9102) was used to add 5 µL of ADP-Glo reaction reagent and cause a reaction at 37°C for 40 minutes, and then 10 µL of enzyme chromogenic reagent was added again to measure a luminescence signal using equipment for measuring absorbance (THECAN, Microplate Reader). An activity inhibition rate was calculated from a measured value, and a 50% inhibition concentration (IC50 value) was analyzed through a non-linear regression analysis based on the % inhibition for each concentration of the test compound, and is shown in Table 2.

IRAK1 enzyme = target: T2, IRAK1 enzyme (Homo sapiens, UniProt P51617); assay: IRAK1 enzyme activity inhibition (ADP-Glo, Promega kit); assay type: biochemical; conditions: for inhibition at 0.1 µM: test compound 0.1 uM; for inhibition at 1 µM: test compound 1 uM
T2 construct: purchased Promega VA7477
T2 sequence (P51617 whole entry): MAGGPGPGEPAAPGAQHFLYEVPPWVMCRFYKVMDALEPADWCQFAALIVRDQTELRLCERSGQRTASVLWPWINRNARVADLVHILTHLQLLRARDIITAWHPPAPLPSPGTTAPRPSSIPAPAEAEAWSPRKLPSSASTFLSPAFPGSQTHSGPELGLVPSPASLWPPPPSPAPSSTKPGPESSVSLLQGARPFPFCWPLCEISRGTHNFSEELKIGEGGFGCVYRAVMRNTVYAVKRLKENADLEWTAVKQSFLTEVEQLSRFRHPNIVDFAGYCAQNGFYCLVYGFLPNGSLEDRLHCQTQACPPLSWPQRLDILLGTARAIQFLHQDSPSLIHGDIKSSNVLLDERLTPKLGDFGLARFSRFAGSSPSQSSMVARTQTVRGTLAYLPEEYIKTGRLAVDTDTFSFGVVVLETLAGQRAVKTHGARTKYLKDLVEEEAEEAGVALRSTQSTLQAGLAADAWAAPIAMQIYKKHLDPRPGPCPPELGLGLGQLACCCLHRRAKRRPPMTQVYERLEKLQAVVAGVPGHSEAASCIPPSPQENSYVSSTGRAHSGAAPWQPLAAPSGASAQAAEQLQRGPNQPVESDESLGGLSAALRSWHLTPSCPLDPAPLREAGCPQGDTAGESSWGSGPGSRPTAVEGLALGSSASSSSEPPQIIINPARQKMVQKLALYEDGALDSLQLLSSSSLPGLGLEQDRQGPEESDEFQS
Experimental: An experiment on IRAK1 enzyme activity inhibition of the compound of the present invention was conducted.
An IRAK1 enzyme kit (purchased from Promega, product number: VA7477) was used to dilute a mixed solution between 0.1 µg/µL of protein kinase B (AKT), which is an enzyme-reactive substrate, and 1.25 mM of ATP with a reaction buffer (40 mM Tris-HCl, pH 7.5; 20 mM MgCl2; 0.1 mg/mL BSA; 50 µM DTT) according to the instructions, so as to dispense 2 µL in a 384-well white plate, and then to add 1 µL of a test compound, which was gradient diluted starting from 1 mM, to a 384-well white plate. After that, an IRAK1 enzyme was diluted with a reaction buffer to a final concentration of 5 ng/µL, then 2 µL/well was dispensed into a 384-well white plate and reacted at 37°C for 60 minutes. After completion of a reaction, an ADP-GloTM enzyme test kit (purchased from Promega, product number: V9102) was used to add 5 µL of ADP-Glo reaction reagent and cause a reaction at 37°C for 40 minutes, and then 10 µL of enzyme chromogenic reagent was added again to measure a luminescence signal using equipment for measuring absorbance (THECAN, Microplate Reader). An activity inhibition rate was calculated from a measured value, and a 50% inhibition concentration (IC50 value) was analyzed through a non-linear regression analysis based on the % inhibition for each concentration of the test compound, and is shown in Table 3.

inhibition at 0.1 µM (IRAK4 enzyme) | inhibition at 0.1 µM (IRAK1 enzyme) | IC50 (IRAK4 enzyme) | inhibition at 1 µM (IRAK1 enzyme) | inhibition at 1 µM (IRAK4 enzyme) | Structure (SMILES)
48.8% | 0% | – | – | – | CNC(=O)[C@@H](C)NC(=O)c1cncc(-c2cc3nn(CCC(C)(C)O)cc3cc2NC(=O)c2cccc(S(N)(=O)=O)c2)c1 [Example 51, (R)-5-(2-(3-hydroxy-3-methylbutyl)-5-(3-sulfamoylbenzamido)-2H-indazol-6-yl)-N-(1-(methylamino)-1-oxopropan-2-yl)nicotinamide]
57.5% | 3.2% | – | – | – | CC(C)(O)CCn1cc2cc(NC(=O)c3cccc(S(N)(=O)=O)c3)c(-c3ccc(C(N)=O)cc3)cc2n1 [Example 46, N-(6-(4-carbamoylphenyl)-2-(3-hydroxy-3-methylbutyl)-2H-indazol-5-yl)-3-sulfamoylbenzamide]
76.7% | 33.1% | 330 nM | 63.4% | – | NC(=O)COCCn1cc2cc(NC(=O)c3cccc(S(N)(=O)=O)c3)c(N3CCOCC3)cc2n1 [Example 17, N-(2-(2-(2-amino-2-oxoethoxy)ethyl)-6-morpholino-2H-indazol-5-yl)-3-sulfamoylbenzamide]
55.4% | 27.7% | – | 31.6% | – | CC(C)(O)CCn1cc2cc(NC(=O)c3cccc(C(N)=O)c3)c(-c3ccc(C(=O)NCc4ccoc4)cc3)cc2n1 [Example 49, N-(6-(4-((furan-3-ylmethyl)carbamoyl)phenyl)-2-(3-hydroxy-3-methylbutyl)-2H-indazol-5-yl)isophthalamide]
88.3% | 30.3% | 40.3 nM | 47.2% | – | CC(C)(O)CCn1cc2cc(NC(=O)c3cccc([N+](=O)[O-])c3F)c(N3CCOCC3)cc2n1 [Example 22, 2-fluoro-N-(2-(3-hydroxy-3-methylbutyl)-6-morpholino-2H-indazol-5-yl)-3-nitrobenzamide]
71.3% | 24% | 22.1 nM | 39.3% | 95.6% | CC(C)(O)CCn1cc2cc(NC(=O)c3cccc(C(N)=O)c3)c(N3CCSCC3)cc2n1 [Example 33, N-(2-(3-hydroxy-3-methylbutyl)-6-thiomorpholino-2H-indazol-5-yl)isophthalamide]
87.9% | 4.6% | 5.1 nM | – | – | CN(C)c1cc2nn(CCC(C)(C)O)cc2cc1NC(=O)c1cccc([N+](=O)[O-])c1 [Example 38, N-(6-(dimethylamino)-2-(3-hydroxy-3-methylbutyl)-2H-indazol-5-yl)-3-nitrobenzamide]
84.7% | – | 31.7 nM | 38.7% | 90.1% | O=C(Nc1cc2cn(CCN3CCOCC3)nc2cc1N1CCOCC1)c1cccc([N+](=O)[O-])c1 [Example 19, N-(6-morpholino-2-(2-morpholinoethyl)-2H-indazol-5-yl)-3-nitrobenzamide]
71.3% | 31.7% | 192 nM | 40.2% | – | CC(C)(O)CCn1cc2cc(NC(=O)c3ccc(F)c([N+](=O)[O-])c3)c(N3CCOCC3)cc2n1 [Example 26, 4-fluoro-N-(2-(3-hydroxy-3-methylbutyl)-6-morpholino-2H-indazol-5-yl)-3-nitrobenzamide]
18.6% | 1.3% | – | 0% | 19.2% | CS(=O)(=O)CCn1cc2cc(NC(=O)c3cccc([N+](=O)[O-])c3)c(N3CCOCC3)cc2n1 [Example 13, N-(2-(2-(methylsulfonyl)ethyl)-6-morpholino-2H-indazol-5-yl)-3-nitrobenzamide]
64.6% | 33.1% | – | 60.8% | – | CC(C)(O)CCn1cc2cc(NC(=O)c3cccc([N+](=O)[O-])c3)c(-c3cccc(C(=O)N4CCOCC4)c3)cc2n1 [Example 35, N-(2-(3-hydroxy-3-methylbutyl)-6-(3-(morpholine-4-carbonyl)phenyl)-2H-indazol-5-yl)-3-nitrobenzamide]
